# Results as given in patent US12551532B2, “Long-acting amylin receptor agonists and uses thereof” (Eli Lilly and Company, priority 2021, dated 2026).
# Starred links: 1 amine or outer side, 2 acyl side, 3 side chain; linkers in the order of their positions; H or OH if unused. Positions of bridges follow the written chain, without caps; N, C: chain ends. Non-standard residues stand in square brackets, D forms with d. Residues, ends and D or L forms follow the SMILES beside them. Groups on a side chain read outwards from the residue. *: point of attachment. C20 diacid = O=C(O)CCCCCCCCCCCCCCCCCCC(=O)*; γGlu = O=C(O)[C@H](CCC(=O)[*:2])N[*:1]; αMeF = C[C@](N)(Cc1ccccc1)C(=O)O; NMeD = CN[C@@H](CC(=O)O)C(=O)O; NMeN = CN[C@@H](CC(N)=O)C(=O)O; αMeL = CC(C)C[C@](C)(N)C(=O)O; Orn = NCCC[C@H](N)C(=O)O; AEEA = NCCOCCOCC(=O)O; CH2 = C([*:1])[*:2]
# Experiments:
# human CT receptors = biological target: T1, human CT receptors (Homo sapiens, UniProt P30988); assay: hCTR cAMP functional activity (HTRF); type: cell-based; details: ±SE; UMUC3 cells overexpressing hCTR; relative EC50
# T1 construct: expressed in transfected cells
# T1 sequence (P30988 25-474): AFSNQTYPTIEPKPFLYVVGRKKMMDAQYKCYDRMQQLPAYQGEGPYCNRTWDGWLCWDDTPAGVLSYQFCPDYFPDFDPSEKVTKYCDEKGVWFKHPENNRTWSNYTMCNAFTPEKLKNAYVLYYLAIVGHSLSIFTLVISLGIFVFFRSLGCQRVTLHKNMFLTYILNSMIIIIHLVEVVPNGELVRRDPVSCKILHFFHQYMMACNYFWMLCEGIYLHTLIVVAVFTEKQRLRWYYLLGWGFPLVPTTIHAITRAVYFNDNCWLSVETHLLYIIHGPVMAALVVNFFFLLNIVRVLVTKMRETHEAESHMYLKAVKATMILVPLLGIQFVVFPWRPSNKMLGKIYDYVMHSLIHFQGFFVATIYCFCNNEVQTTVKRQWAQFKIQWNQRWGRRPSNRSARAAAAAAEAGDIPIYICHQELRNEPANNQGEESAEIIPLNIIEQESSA
# Method: (§1) The AMY1 and CT receptors are GPCRs that are functionally coupled to Gas proteins. […] In vitro activity of peptides is measured by the amount of cAMP formed in human AMY1R and CTR overexpressed cells.
# Human CT receptors are stably expressed in human urinary bladder cells (UM-UC-3, or UMUC3) under control of a pcDNA expression vector. […] After 20 days under selection, the mRNA levels from different clones are measured to confirm the expression of hCTR. To determine the function of over-expressed hCTR cells, the intracellular cAMP levels in response to salmon calcitonin are measured and compared to the expression of hCTR mRNA in each clone.
# (§2) hAMY1R cells are cultured in MEM 1× (Corning) supplemented with 10% FBS, 1% antibiotic/antimycotic solution, 1 mM sodium pyruvate, 1×MEM NEAA, 1× GlutaMAX-I, 200 μg/mL hygromycin B, and 0.4 μg/mL puromycin. The hCTR cells are cultured in the same medium lacking the puromycin. Cultured cells are grown to 70% confluency and then incubated overnight with fresh medium.
# (§3) Peptides diluted in DMSO are added (200 nL/well) in a 1:3 dilution series using ECHO acoustic liquid handler (Beckman). Cultured cells are detached with TrypLE Express (Gibco), resuspended in assay buffer, and 10 μL containing 1200 cells/well (hCTR) or 1500 cells/well (hAMY1R) are dispensed into each well. The plates are incubated at room temperature for 1 hour.
# (§4) The amount of intracellular cAMP is quantitated using HTRF technology (Homogeneous Time Resolved Fluorescence; Cisbio) as per vendor instructions. Briefly, 10 μL cAMP-d2 conjugate and 10 μL anti-cAMP-cryptate conjugate in lysis buffer are incubated with the treated cells at room temperature for 60 min. […] The raw data are converted to cAMP amount (pmol/well) using a cAMP standard curve generated for each experiment.
# hAMY1R = biological target: T2, hAMY1R (Homo sapiens, UniProt O60894+P30988); assay: hAMY1R cAMP functional activity (HTRF); type: cell-based; details: ±SE; UMUC3 cells overexpressing hAMY1R; relative EC50
# T2 construct: expressed in transfected cells
# T2 sequence (O60894 27-148 partner, one chain of several): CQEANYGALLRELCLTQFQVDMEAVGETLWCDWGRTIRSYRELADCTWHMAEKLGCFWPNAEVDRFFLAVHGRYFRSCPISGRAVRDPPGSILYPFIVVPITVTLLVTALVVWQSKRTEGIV
# Method: as §1
# Human AMY1R stable cell lines are generated by further transfecting human RAMP1-pCMVpuroPB (T14213) into UMUC3 hCTR clone cells. After selection, the mRNA levels human RAMP1 from different clones are measured to confirm the expression of human AMY1R.
# as §2, §3, §4
Structure (SMILES),EC50 (human CT receptors) [nM],EC50 (hAMY1R) [nM]
"CC(C)C[C@H](NC(=O)[C@H](CCCN)NC(=O)CNC(=O)[C@@H](NC(=O)[C@H](C)NC(=O)[C@@H]1CSCSC[C@H](NC(=O)CC[C@H](N)C(=O)O)C(=O)N[C@@H](CC(N)=O)C(=O)N[C@@H]([C@@H](C)O)C(=O)N[C@@H](C)C(=O)N[C@@H]([C@@H](C)O)C(=O)N1)[C@@H](C)O)C(=O)N[C@@H](C)C(=O)N[C@@H](CCC(=O)O)C(=O)N[C@@](C)(Cc1ccccc1)C(=O)N[C@@H](CC(C)C)C(=O)N[C@H](C(=O)N[C@@H](CCCNC(=N)N)C(=O)N[C@@H](CO)C(=O)N[C@@H](CO)C(=O)N[C@@H](CC(N)=O)C(=O)N(C)[C@@H](CC(N)=O)C(=O)N[C@@H](Cc1ccccc1)C(=O)NCC(=O)N1CCC[C@H]1C(=O)N[C@@H](CCCCN)C(=O)N[C@@H](CC(C)C)C(=O)N1CCC[C@H]1C(=O)N1CCC[C@H]1C(=O)N[C@H](C(=O)N[C@@H](CCC(=O)O)C(=O)N[C@H](C(=O)NCC(=O)N[C@@H](CO)C(=O)N[C@@H](CC(N)=O)C(=O)N[C@H](C(=O)N[C@@H](Cc1ccc(O)cc1)C(N)=O)[C@@H](C)O)C(C)C)[C@@H](C)O)C(C)C [Compound I, γE-CNTATCATG-Orn-LAE-αMeF-LVRSSN-NMeN-FGPKLPPTEVGSNTY-NH2] (γGlu-CNTATCATG[Orn]LAE[αMeF]LVRSSN[NMeN]FGPKLPPTEVGSNTY-NH2; linker 1-6 via CH2)",18 ± 1.08,0.133 ± 0.012
CC(C)C[C@H](NC(=O)[C@H](CCCCN)NC(=O)CNC(=O)[C@@H](NC(=O)[C@H](C)NC(=O)[C@@H]1CSCSC[C@H](NC(=O)CC[C@H](N)C(=O)O)C(=O)N[C@@H](CC(N)=O)C(=O)N[C@@H]([C@@H](C)O)C(=O)N[C@@H](C)C(=O)N[C@@H]([C@@H](C)O)C(=O)N1)[C@@H](C)O)C(=O)N[C@@H](C)C(=O)N[C@@H](CCC(=O)O)C(=O)N[C@@H](Cc1ccccc1)C(=O)N[C@@H](CC(C)C)C(=O)N[C@H](C(=O)N[C@@H](CCCNC(=N)N)C(=O)N[C@@H](CO)C(=O)N[C@@H](CO)C(=O)N[C@@H](CC(N)=O)C(=O)N[C@@H](CC(N)=O)C(=O)N[C@@H](Cc1ccccc1)C(=O)NCC(=O)N1CCC[C@H]1C(=O)N[C@@H](CCCCNC(=O)COCCOCCNC(=O)COCCOCCNC(=O)CC[C@H](NC(=O)CCCCCCCCCCCCCCCCCCC(=O)O)C(=O)O)C(=O)N[C@@H](CC(C)C)C(=O)N1CCC[C@H]1C(=O)N1CCC[C@H]1C(=O)N[C@H](C(=O)N[C@@H](CCC(=O)O)C(=O)N[C@H](C(=O)NCC(=O)N[C@@H](CO)C(=O)N[C@@H](CC(N)=O)C(=O)N[C@H](C(=O)N[C@@H](Cc1ccc(O)cc1)C(N)=O)[C@@H](C)O)C(C)C)[C@@H](C)O)C(C)C [Compound IX] (γGlu-CNTATCATGKLAEFLVRSSNNFGPK([AEEA-AEEA-γGlu-C20 diacid])LPPTEVGSNTY-NH2; linker 1-6 via CH2),18.9 ± 3.83,0.132 ± 0.02

# Compounds with a lower EC50 (human CT receptors), results first:
EC50 (human CT receptors) [nM],EC50 (hAMY1R) [nM],Structure (SMILES)
17 ± 2.44,0.139 ± 0.017,"CC[C@H](C)[C@H](NC(=O)[C@@H]1CCCN1C(=O)CNC(=O)[C@H](Cc1ccccc1)NC(=O)[C@H](CC(=O)O)N(C)C(=O)[C@H](CC(N)=O)NC(=O)[C@H](CO)NC(=O)[C@H](CO)NC(=O)[C@H](CCCNC(=N)N)NC(=O)[C@@H](NC(=O)[C@H](CC(C)C)NC(=O)[C@](C)(Cc1ccccc1)NC(=O)[C@H](CCC(=O)O)NC(=O)[C@H](C)NC(=O)[C@H](CC(C)C)NC(=O)[C@H](CCCN)NC(=O)CNC(=O)[C@@H](NC(=O)[C@H](C)NC(=O)[C@@H]1CSCSC[C@H](NC(=O)[C@@H](N)CCCCN)C(=O)N[C@@H](CCC(=O)O)C(=O)N[C@@H]([C@@H](C)O)C(=O)N[C@@H](C)C(=O)N[C@@H]([C@@H](C)O)C(=O)N1)[C@@H](C)O)C(C)C)C(=O)N[C@@H](CC(C)C)C(=O)N1CCC[C@H]1C(=O)N1CCC[C@H]1C(=O)N[C@H](C(=O)N[C@@H](CCC(=O)O)C(=O)N[C@H](C(=O)NCC(=O)N[C@@H](CO)C(=O)N[C@@H](CC(N)=O)C(=O)N[C@H](C(=O)N[C@@H](Cc1ccc(O)cc1)C(N)=O)[C@@H](C)O)C(C)C)[C@@H](C)O [Compound V, KCETATCATG-Orn-LAE-αMeF-LVRSSN-NMeD-FGPILPPTEVGSNTY-NH2] (H-KCETATCATG[Orn]LAE[αMeF]LVRSSN[NMeD]FGPILPPTEVGSNTY-NH2; linker 2-7 via CH2)"
16.3 ± 3.03,0.156 ± 0.027,"CC(C)C[C@H](NC(=O)[C@H](CCCN)NC(=O)CNC(=O)[C@@H](NC(=O)[C@H](C)NC(=O)[C@@H]1CSCSC[C@H](NC(=O)CC[C@H](N)C(=O)O)C(=O)N[C@@H](CC(N)=O)C(=O)N[C@@H]([C@@H](C)O)C(=O)N[C@@H](C)C(=O)N[C@@H]([C@@H](C)O)C(=O)N1)[C@@H](C)O)C(=O)N[C@@H](C)C(=O)N[C@@H](CCC(=O)O)C(=O)N[C@@](C)(Cc1ccccc1)C(=O)N[C@@H](CC(C)C)C(=O)N[C@H](C(=O)N[C@@H](CCCNC(=N)N)C(=O)N[C@@H](CO)C(=O)N[C@@H](CO)C(=O)N[C@@H](CC(N)=O)C(=O)N(C)[C@@H](CC(=O)O)C(=O)N[C@@H](Cc1ccccc1)C(=O)NCC(=O)N1CCC[C@H]1C(=O)N[C@@H](CCCCN)C(=O)N[C@@H](CC(C)C)C(=O)N1CCC[C@H]1C(=O)N1CCC[C@H]1C(=O)N[C@H](C(=O)N[C@@H](CCC(=O)O)C(=O)N[C@H](C(=O)NCC(=O)N[C@@H](CO)C(=O)N[C@@H](CC(N)=O)C(=O)N[C@H](C(=O)N[C@@H](Cc1ccc(O)cc1)C(N)=O)[C@@H](C)O)C(C)C)[C@@H](C)O)C(C)C [Compound III, γE-CNTATCATG-Orn-LAE-αMeF-LVRSSN-NMeD-FGPKLPPTEVGSNTY-NH2] (γGlu-CNTATCATG[Orn]LAE[αMeF]LVRSSN[NMeD]FGPKLPPTEVGSNTY-NH2; linker 1-6 via CH2)"
11.9 ± 1.53,0.173 ± 0.034,CC[C@H](C)[C@H](NC(=O)[C@@H]1CCCN1C(=O)CNC(=O)[C@H](Cc1ccccc1)NC(=O)[C@H](CC(N)=O)NC(=O)[C@H](Cc1c[nH]cn1)NC(=O)[C@H](CO)NC(=O)[C@H](CO)NC(=O)[C@H](CCCNC(=N)N)NC(=O)[C@@H](NC(=O)[C@H](CC(C)C)NC(=O)[C@H](Cc1ccccc1)NC(=O)[C@H](CCC(=O)O)NC(=O)[C@H](C)NC(=O)[C@](C)(CC(C)C)NC(=O)[C@H](CCCN)NC(=O)CNC(=O)[C@@H](NC(=O)[C@H](C)NC(=O)[C@@H]1CSCSC[C@H](NC(=O)[C@@H](N)CCCCN)C(=O)N[C@@H](CCC(=O)O)C(=O)N[C@@H]([C@@H](C)O)C(=O)N[C@@H](C)C(=O)N[C@@H]([C@@H](C)O)C(=O)N1)[C@@H](C)O)C(C)C)C(=O)N[C@@H](CC(C)C)C(=O)N1CCC[C@H]1C(=O)N1CCC[C@H]1C(=O)N[C@H](C(=O)N[C@@H](CCC(=O)O)C(=O)N[C@H](C(=O)NCC(=O)N[C@@H](CO)C(=O)N[C@@H](CC(N)=O)C(=O)N[C@H](C(=O)N[C@@H](Cc1ccc(O)cc1)C(N)=O)[C@@H](C)O)C(C)C)[C@@H](C)O [Compound VII] (H-KCETATCATG[Orn][αMeL]AEFLVRSSHNFGPILPPTEVGSNTY-NH2; linker 2-7 via CH2)
